The source of these data is patent US20210317092A1 (BAYER PHARMA AKTIENGESELLSCHAFT, priority 2016, published 2021).

pIC50: −log10 of the molar value.

The target in the first assay is T1, human Bradykinin B1 receptor (Homo sapiens, UniProt P46663).
T1 construct: host or cells: CHO-K1
T1 sequence (P46663 1-353): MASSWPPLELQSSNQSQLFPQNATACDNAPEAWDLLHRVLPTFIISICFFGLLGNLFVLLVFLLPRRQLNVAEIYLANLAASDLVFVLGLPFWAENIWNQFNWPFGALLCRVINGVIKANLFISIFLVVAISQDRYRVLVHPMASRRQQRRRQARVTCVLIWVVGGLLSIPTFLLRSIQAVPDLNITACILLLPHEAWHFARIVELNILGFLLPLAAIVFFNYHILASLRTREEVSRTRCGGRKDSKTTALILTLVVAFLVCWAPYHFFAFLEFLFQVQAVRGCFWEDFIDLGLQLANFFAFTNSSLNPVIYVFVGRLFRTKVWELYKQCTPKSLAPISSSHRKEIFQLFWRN
The assay can be described thus: Calcium flux Assay (FLIPR) with recombinant CHO-K1 cells expressing human Bradykinin B1 receptor, in presence (hB1 IC50) or absence (hB1 free IC50) of 0.1% BSA. Type of assay: cell-based. The settings on record: in absence of 0.1% BSA, read-out: hB1 free IC50. On the procedure: The potency to inhibit the Bradykinin B1 receptor was determined for the compounds of this invention in a cell-based fluorescent calcium-mobilisation assay. The assay measures the ability of test compounds to inhibit Bradykinin B1 receptor agonist-induced increase of intracellular free Ca^2+ in the cell line expressing Bradykinin B1 receptor. […] The change of the intracellular Ca^2+ concentration is monitored with a fluorescent plate reader FLIPR TETRA® (Molecular Devices).
Calcium flux Assays (FLIPR) with cells expressing human Bradykinin B1 receptor (hB1)
CHO-K1 cell line expressing human Bradykinin B1 receptor was purchased from Euroscreen (Gosselies, Belgium, with reference name hB1-D1). The cells were grown in Nutrient Mixture Ham's F12 (Sigma) containing 10% Foetal bovine serum (Sigma) and 400 μg/mL G418 (Sigma), 5 μg/mL puromycim (Sigma). […]
Cells were seeded in a volume of 50 μL in medium without antibiotics and incubated overnight in a humidified atmosphere with 5% CO2 at 37° C. […] The calcium indicator loaded cells were incubated at 37° C. for 2 hrs. Extracellular dye was then removed and each well was filled with 45 μL of assay buffer. Cell plates were kept in dark until used. Compound examples were assayed at 8 concentrations in triplicate. Serial 10-fold dilutions in 100% DMSO were made at a 100-times higher concentration than the final concentration, and then diluted 1:10 in assay buffer. 5 μL of each diluted compound was added to the well of cell plates (yielding final concentration with 1% DMSO), and incubated for 30 min at 28° C. before the addition of Bradykinin B1 receptor agonist on the FLIPR instrument.
A peptide antagonist Lys-(Des-Arg-Leu)-Bradykinin (Bachem, Brackley) at 20 µM was used to determine the full inhibition as control.
Peak fluorescence was used to determine the response to agonist obtained at each concentration of compound examples by the following equation:
% Response=100*(RFU(compound)−RFU(control))/(RFU(DMSO)−RFU(control)) • RFU means relative fluorescence units. • Control means full inhibition by the peptide antagonist Lys-(Des-Arg-Leu)-Bradykinin at 20 µM.
The response values were plotted against the logarithm of the compound concentrations. The compound examples were tested in triplicates per plate and mean values were plotted in Excel XLfit to determine IC50 values, percentage of maximal inhibition and the Hill slopes.
By pIC50 is commonly meant the IC50 on a negative log10 scale, so that one unit is a factor of ten. `O=C(Nc1cc(Cl)c(-c2ccc(C(F)(F)F)nc2)c(-c2nnn[nH]2)c1)C1(c2ccc(F)c(F)c2)CC1` [Example 303, N-{3-chloro-5-(1H-tetrazol-5-yl)-4-[6-(trifluoromethyl)pyridin-3-yl]phenyl}-1-(3,4-difluorophenyl)cy-clopropanecar-boxamide]: the negative logarithm of the IC50 (pIC50) is 7.28.

On to `O=C(Nc1ccc(-c2ccc(C(F)(F)F)nc2)c(-c2nnn[nH]2)c1F)C1(c2ccc(F)c(F)c2)CC1` [Example 298, 1-(3,4-difluorophenyl)-N-{2-fluoro-3-(1H-tetrazol-5-yl)-4-[6-(trifluoromethyl)pyridin-3-yl]phenyl}cyclopro-panecarboxa-mide], for which the negative-log IC50 (pIC50) was 6.43.

On to `CCOc1ccc(-c2ccc(NC(=O)C3(c4ccccc4)CC3)cc2-c2nnn[nH]2)cn1` [Example 306, N-[4-(6-ethoxypyridin-3-yl)-3-(1H-tetrazol-5-yl)phenyl]-1-phenylcyclopropane-carboxamide], for which the pIC50 is 7.34.

Consider `O=C(Nc1ccc(-c2ccnc(C(F)F)c2)c(-c2nnn[nH]2)c1)C1(c2cccc(Cl)c2)CC1` [Example 170, 1-(3-chlorophenyl)-N-{4-[2-(difluoromethyl)pyridin-4-yl]-3-(1H-tetrazol-5-yl)phenyl} cyclopropane-carboxamide], for which the pIC50 was 6.01.

For the compound `O=C(Nc1ccc(-n2cc(C(F)(F)F)cn2)c(-c2nnn[nH]2)c1)C1(c2ccc(OC(F)(F)F)cc2F)CC1` [Example 364, 1-[2-fluoro-4-(trifluoromethoxy)phenyl]-N-{3-(1H-tetrazol-5-yl)-4-[4-(trifluoromethyl)-1H-pyrazol-1-yl]phenyl}cyclopro-panecarboxa-mide], the negative-log IC50 (pIC50) was 7.90.

Take `O=C(Nc1ccc(-c2cc3ccccc3s2)c(-c2nnn[nH]2)c1)C1(c2ccc(F)c(F)c2)CC1` [Example 385, N-[4-(1-benzothiophen-2-yl)-3-(1H-tetrazol-5-yl)phenyl]-1-(3,4-difluorophenyl)cyclo-propanecar-boxamide]: the pIC50 is 7.26.

For `Cc1ncc(-c2ccc(NC(=O)C3(c4cccc(Cl)c4)CC3)cc2-c2nnn[nH]2)cn1` [Example 194, 1-(3-chlorophenyl)-N-[4-(2-methylpyrimidin-5-yl)-3-(1H-tetrazol-5-yl)phenyl] cyclopropane-carboxamide], the pIC50 is 6.24.

`O=C(Nc1ccc(-c2cncc(F)c2)c(-c2nnn[nH]2)c1)C1(c2cccc(Cl)c2)CC1` [Example 335, 1-(3-chlorophenyl)-N-[4-(5-fluoropyridin-3-yl)-3-(1H-tetrazol-5-yl)phenyl]cyclopro-panecarboxa-mide]: the pIC50 was 6.53.

With `CCC(F)(F)c1ccc(-c2ccc(NC(=O)C3(c4ccc(C(F)(F)F)cc4F)CC3)cc2-c2nnn[nH]2)cn1` [Example 286, N-{4-[6-(1,1-difluoropropyl)py-ridin-3-yl]-3-(1H-tetrazol-5-yl)phenyl}-1-[2-fluoro-4-(trifluoromethyl)phenyl]cyclopro-panecarboxamide], the pIC50 was 8.36.

Take `O=C(Nc1ccc(-c2cnc(C(F)(F)F)nc2)c(-c2nnn[nH]2)c1)C1(c2ccc(OC(F)(F)F)cc2)CC1` [Example 198, N-{3-(1H-tetrazol-5-yl)-4-[2-(trifluoromethyl)pyrimidin-5-yl]phenyl}-1-[4-(trifluoromethoxy)phenyl] cyclopropane-carboxamide]: the pIC50 is 6.03.

Turning to `O=C(Nc1ccc(-c2ccc(C(F)(F)F)nc2)c(-c2nnn[nH]2)c1)C1(c2ccc(F)cc2)CC1` [Example 204, 1-(4-fluorophenyl)-N-{3-(1H-tetrazol-5-yl)-4-[6-(trifluoromethyl)pyridin-3-yl]phenyl} cyclopropane-carboxamide], the pIC50 is 6.90.

For the compound `CS(=O)(=O)c1ccc(-c2ccc(NC(=O)C3(c4ccc(C(F)(F)F)cc4F)CC3)cc2-c2nnn[nH]2)cn1` [Example 201, 1-[2-fluoro-4-(trifluoromethyl)phenyl]-N-{4-[6-(methylsulfonyl)pyridin-3-yl]-3-(1H-tetrazol-5-yl)phenyl} cyclopropane-carboxamide], the pIC50 was 6.43.

In the case of `O=C(Nc1ccc(-c2cnc(C(F)(F)F)nc2)c(-c2nnn[nH]2)c1)C1(c2ccc(Cl)cc2F)CC1` [Example 252, 1-(4-chloro-2-fluorophenyl)-N-{3-{1H-tetrazol-5-yl)-4-[2-(trifluoromethyl)pyrimidin-5-yl]phenyl} cyclopropane-carboxamide], the pIC50 was 7.03.

Regarding `O=C(Nc1cc(Cl)c(-c2ccc(C(F)(F)F)nc2)c(-c2nnn[nH]2)c1)C1(c2cccc(Cl)c2)CC1` [Example 302, 1-(3-chlorophenyl)-N-{3-chloro-5-(1H-tetrazol-5-yl)-4-[6-(trifluoromethyl)pyridin-3-yl]phenyl}cyclopro-panecarboxa-mide], the negative logarithm of the IC50 (pIC50) is 7.36.

Take `Cc1cc(Cl)ccc1C1(C(=O)Nc2ccc(-c3ccc(C(F)(F)F)nc3)c(-c3nnn[nH]3)c2)CC1` [Example 290, 1-(4-chloro-2-methylphenyl)-N-{3-(1H-tetrazol-5-yl)-4-[6-(trifluoromethyl)pyridin-3-yl]phenyl}cyclopro-panecarboxa-mide]: the negative logarithm of the IC50 (pIC50) was 6.87.

The assay is the same for the next values; noted with them: in presence of 0.1% BSA, read-out: hB1 IC50.
As for `COc1ccc(-c2ccc(NC(=O)C3(c4ccc(F)c(Cl)c4)CC3)cc2-c2nnn[nH]2)cc1OC` [Example 14, 1-(3-chloro-4-fluorophenyl)-N-[3′,4′-dimethoxy-2-(1H-tetrazol-5-yl)biphenyl-4-yl]cyclopropane carboxamide], the negative logarithm of the IC50 (pIC50) is 7.00.

For the compound `CCOc1ccc(-c2ccc(NC(=O)C3(c4ccccc4)CC3)cc2-c2nnn[nH]2)cn1` [Example 306, N-[4-(6-ethoxypyridin-3-yl)-3-(1H-tetrazol-5-yl)phenyl]-1-phenylcyclopropane-carboxamide], the pIC50 is 6.88.

`Cc1ncc(-c2ccc(NC(=O)C3(c4cccc(Cl)c4)CC3)cc2-c2nnn[nH]2)cn1` [Example 194, 1-(3-chlorophenyl)-N-[4-(2-methylpyrimidin-5-yl)-3-(1H-tetrazol-5-yl)phenyl] cyclopropane-carboxamide]: the pIC50 is 6.24.

Take `COc1ccc(-c2ccc(NC(=O)C3(c4ccccc4F)CC3)cc2-c2nnn[nH]2)cc1OC` [Example 3, N-[3′,4′-dimethoxy-2-(1H-tetrazol-5-yl)biphenyl-4-yl]-1-(2-fluorophenyl) cyclopropane-carboxamide]: the negative logarithm of the IC50 (pIC50) was 7.26.

As for `COc1ccc(-c2ccc(NC(=O)C3(c4ccccc4C)CC3)cc2-c2nnn[nH]2)cc1OC` [Example 37, N-[3′,4′-dimethoxy-2-(1H-tetrazol-5-yl)biphenyl-4-yl]-1-(2-methylphenyl) cyclopropane-carboxamide], the pIC50 is 5.74.

`O=C(Nc1cc(-c2nnn[nH]2)c(-c2ccc(C(F)(F)F)nc2)cc1O)C1(c2ccc(Cl)cc2F)CC1` [Example 221, 1-(4-chloro-2-fluorophenyl)-N-{2-hydroxy-5-(1H-tetrazol-5-yl)-4-[6-(trifluoromethyl)pyridin-3-yl]phenyl} cyclopropane-carboxamide]: the pIC50 was 6.80.

Consider `O=C(Nc1ccc(-c2cncc(F)c2)c(-c2nnn[nH]2)c1)C1(c2cccc(Cl)c2)CC1` [Example 335, 1-(3-chlorophenyl)-N-[4-(5-fluoropyridin-3-yl)-3-(1H-tetrazol-5-yl)phenyl]cyclopro-panecarboxa-mide], for which the negative logarithm of the IC50 (pIC50) was 6.29.

Turning to `COc1ccc(-c2ccc(NC(=O)C3(c4ccc(Cl)nc4)CC3)cc2-c2nnn[nH]2)cc1OC` [Example 51, 1-(6-Chloropyridin-3-yl)-N-[3′,4′-dimethoxy-2-(1H-tetrazol-5-yl)biphenyl-4-yl]cyclopropane carboxamide], the pIC50 is 6.47.

`CCOc1ccc(-c2ccc(NC(=O)C3(C4CCC(C)(C)CC4)CC3)cc2-c2nnn[nH]2)cn1` [Example 109, 1-(4,4-dimethylcyclo-hexyl)-N-[4-(6-ethoxypyridin-3-yl)-3-(1H-tetrazol-5-yl)phenyl] cyclopropane-carboxamide]: the pIC50 was 7.91.

As for `CCOc1cncc(-c2ccc(NC(=O)C3(c4cccc(C(F)(F)F)c4)CC3)cc2-c2nnn[nH]2)c1` [Example 155, N-[4-(5-ethoxypyridin-3-yl)-3-(1H-tetrazol-5-yl)phenyl]-1-[3-(trifluoromethyl)phenyl] cyclopropane-carboxamide], the pIC50 was 6.66.
